# From BindingDB's records for doi:10.1016/0014-5793(95)01389-x (Max-Planck-Institut, 1995)
# Molecular target: 5-hydroxytryptamine receptor 5A (Mus musculus, UniProt P30966)
# Sequence (P30966 whole entry): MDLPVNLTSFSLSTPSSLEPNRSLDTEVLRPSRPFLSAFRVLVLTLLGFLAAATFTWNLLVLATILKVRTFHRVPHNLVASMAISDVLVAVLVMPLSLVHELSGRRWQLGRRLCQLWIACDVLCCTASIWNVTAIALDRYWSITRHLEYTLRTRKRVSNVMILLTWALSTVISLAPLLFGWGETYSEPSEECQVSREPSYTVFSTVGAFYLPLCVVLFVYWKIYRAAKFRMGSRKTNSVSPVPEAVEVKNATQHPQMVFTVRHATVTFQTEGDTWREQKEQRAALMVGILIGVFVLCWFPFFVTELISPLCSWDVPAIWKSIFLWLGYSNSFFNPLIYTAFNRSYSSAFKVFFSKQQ
row,Compound,Ki [µM]
1,CC[C@@H](CO)NC(=O)[C@@H]1C=C2c3cccc4c3c(cn4C)C[C@H]2N(C)C1,0.5
2,CN1CC(C(=O)O)C=C2c3cccc4[nH]cc(c34)CC21 (centres undefined) [NSC_622688],2
3,CN(C)CCc1c[nH]c2ccc(O)cc12 [3-[2-(dimethylamino)ethyl]indol-5-ol],2.9
4,"CN1C[C@H](C(=O)N[C@]2(C)O[C@@]3(O)[C@@H]4CCCN4C(=O)[C@H](Cc4ccccc4)N3C2=O)C=C2c3cccc4[nH]cc(c34)C[C@H]21 [12'-hydroxy-2'-methyl-5'alpha-(phenylmethyl)ergotaman-3',6',18-trione]",0.038
